From ChEMBL document CHEMBL4017471, “Discovery of novel aminobenzisoxazole derivatives as orally available factor IXa inhibitors” (Bioorg Med Chem Lett, 2017) come the findings set out here.

Structures are written as SMILES. Activity calls are given as the source filed them. No cut-off for these calls is given here.

The test system of series [1] is Plasma. In words: Anticoagulant activity in human plasma assessed as concentration required to double activated partial thromboplastin time. Format: functional.
Series [2] is described as follows: Cmax in rat at 1 mg/kg, po administered as cassette dose. The class given is ADME, organism-based. Also on record: dose 1 mg/kg, route oral. The settings on record: in vivo.
Series [3] in a line: Unbound plasma concentration in human at 10 uM measured after 4 hrs by equilibrium dialysis method. Format: ADME, cell-free. A general note: Equilibrium dialysis compares concentrations on both sides of a semipermeable membrane.
Series [4] in a line: Apparent permeability of the compound at 5 uM after 5 hrs by PAMPA. The class given is physicochemical.
Series [5] concerns the target Coagulation factor X (Homo sapiens, UniProt P00742).
Description: Inhibition of human coagulation factor 10a
For series [6], the target named is Coagulation factor IX (Homo sapiens, UniProt P00740).
Sequence of Coagulation factor IX (P00740 47-191 limits assumed): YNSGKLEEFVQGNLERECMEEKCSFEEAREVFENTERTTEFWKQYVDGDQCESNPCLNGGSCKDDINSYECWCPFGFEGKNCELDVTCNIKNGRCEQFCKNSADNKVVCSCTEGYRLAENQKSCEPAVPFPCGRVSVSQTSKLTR
Sequence of Coagulation factor IX (P00740 227-461 limits assumed): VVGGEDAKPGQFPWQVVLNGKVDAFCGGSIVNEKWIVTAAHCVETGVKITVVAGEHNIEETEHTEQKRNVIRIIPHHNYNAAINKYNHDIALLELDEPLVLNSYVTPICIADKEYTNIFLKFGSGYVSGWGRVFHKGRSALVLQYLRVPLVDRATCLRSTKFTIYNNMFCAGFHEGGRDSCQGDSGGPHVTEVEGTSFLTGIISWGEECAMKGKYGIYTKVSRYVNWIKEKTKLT
For series [7], the system named is Rattus norvegicus. Description: Anticoagulant activity in po dosed rat assessed as prolongation of activated partial thromboplastin time measured after 2 hrs. The class given is functional, organism-based.
Series [8] relates to Rattus norvegicus. Description: Effect on prothrombin time in rat at 1 to 100 mg/kg, po measured after 2 hrs. The class given is functional, organism-based.

As a reminder, the Cmax is the maximum level reached in the sampled fluid or tissue. As usually defined, the fraction unbound is free concentration divided by total concentration. A lower fraction unbound goes with extensive binding. In general, Papp refers to the rate of passage across a membrane or cell layer, normalised by area and donor concentration. The term IC50 denotes the concentration at which inhibition is half-maximal.

Sequence of Coagulation factor X (P00742 41-179 limits assumed): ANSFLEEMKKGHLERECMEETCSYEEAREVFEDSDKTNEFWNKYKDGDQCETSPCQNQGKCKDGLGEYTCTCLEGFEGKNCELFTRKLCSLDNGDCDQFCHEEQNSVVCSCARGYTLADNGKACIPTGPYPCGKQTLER
Sequence of Coagulation factor X (P00742 235-488 limits assumed): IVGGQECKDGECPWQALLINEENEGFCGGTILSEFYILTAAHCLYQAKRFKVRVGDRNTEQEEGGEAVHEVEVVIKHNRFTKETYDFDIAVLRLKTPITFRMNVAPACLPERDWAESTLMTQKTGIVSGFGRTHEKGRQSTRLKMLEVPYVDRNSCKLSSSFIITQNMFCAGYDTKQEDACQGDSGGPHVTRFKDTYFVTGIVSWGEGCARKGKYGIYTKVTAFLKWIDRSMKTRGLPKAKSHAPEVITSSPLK

As to `Nc1noc2c(N3CC[C@@H](NC(=O)c4ccc(-n5cnc6ccccc65)cc4Cl)C3)ncc(Cl)c12`, the 2aPTT in series [1] was 72 µM. Also, in series [2], the Cmax is 110 ng/mL. The fraction unbound at 4 h, 10 µM in series [3] was 0.001. Further, the Papp at 5 h, 5 µM in series [4] was 3.3 ×10⁻⁶ cm/s. Further, the results for the IC50 in series [5] and in series [6] were greater than 100000 nM and 32 nM, respectively.

Consider `Nc1noc2c(N3CC[C@@H](NC(=O)c4ccc(-n5cnnc5C(F)F)cc4Cl)C3)ncc(Cl)c12`, for which, in series [1], the 2aPTT is 32 µM. In addition, the highest concentration (Cmax) in series [2] came to 100 ng/mL. This compound came in with a fraction unbound at 4 h, 10 µM in series [3] of 0.012. The Papp at 5 h, 5 µM in series [4] came to 2.7 ×10⁻⁶ cm/s. Also, the IC50 in series [5] is greater than 100000 nM; in series [6], 45 nM.

`Cc1ccc(N2CCC(C)(NC(=O)c3ccc(-n4cnnc4)cc3Cl)C2)c([N+](=O)[O-])c1` (stereo unspecified): the IC50 was greater than 100000 nM in series [5] and 2200 nM in series [6].

Regarding `Nc1noc2c(N3CC[C@@H](NC(=O)c4ccc(-n5cnc6ncccc65)cc4Cl)C3)ncc(Cl)c12`, the 2aPTT in series [1] is 28 µM. The same compound returned a fraction unbound at 4 h, 10 µM in series [3] of 0.008. For the same compound, in series [4], the Papp at 5 h, 5 µM turned out to be 3.1 ×10⁻⁶ cm/s. In addition, the figures for the IC50 in series [5] and in series [6] were 25000 nM and 13 nM, respectively.

With `Cn1ncn(-c2ccc(C(=O)N[C@@H]3CCN(c4ncc(Cl)c5c(N)noc45)C3)c(Cl)c2)c1=O`, the 2aPTT in series [1] is 13 µM. This compound also had a Cmax in series [2] of 390 ng/mL. The fraction unbound at 4 h, 10 µM in series [3] is 0.016. Further, in series [4], the Papp at 5 h, 5 µM is 10.3 ×10⁻⁶ cm/s. Besides, the IC50 in series [5] is greater than 100000 nM; in series [6], 15 nM.

For `Nc1noc2c(N3CCC(NC(=O)c4ccc(-n5cnnc5)cc4Cl)C3)cccc12` (racemic), the IC50 is greater than 100000 nM in series [5] and 98 nM in series [6].

On to `Cc1ncn(-c2ccc(C(=O)N[C@@H]3CCN(c4ncc(Cl)c5c(N)noc45)C3)c(Cl)c2)n1`, for which the 2aPTT in series [1] turned out to be 113 µM. Also, the concentration in series [2] peaked (Cmax) at 330 ng/mL. For the same compound, the fraction unbound at 4 h, 10 µM in series [3] was found to be 0.002. Moreover, the Papp at 5 h, 5 µM in series [4] was found to be 11.6 ×10⁻⁶ cm/s. The IC50 in series [5] was greater than 100000 nM; in series [6] it was 33 nM.

As to `Nc1noc2c(N3CC[C@@H](NC(=O)c4ccc(-n5cnc(CCO)c5)cc4Cl)C3)ncc(Cl)c12`, the 2aPTT in series [1] was found to be 57 µM. Besides, in series [2], the Cmax stood at 210 ng/mL. This compound also registered a fraction unbound at 4 h, 10 µM in series [3] of 0.005. For the same compound, in series [4], the Papp at 5 h, 5 µM was found to be 1.6 ×10⁻⁶ cm/s. Further, the concentration for half-maximal inhibition (IC50) in series [5] was greater than 100000 nM; in series [6], 13 nM.

Regarding `Nc1noc2c(N3CC[C@@H](NC(=O)c4ccc(-n5cnnc5)cc4Cl)C3)ncc(Cl)c12`, the peak level in series [2] (Cmax) was 120 ng/mL. The fraction unbound at 4 h, 10 µM in series [3] came to 0.012. Moreover, the Papp at 5 h, 5 µM in series [4] was determined as 0.7 ×10⁻⁶ cm/s. The IC50 in series [5] was found to be 78000 nM; in series [6], 31 nM.

For `Cn1cc(-c2ccc(C(=O)N[C@@H]3CCN(c4ncc(Cl)c5c(N)noc45)C3)c(Cl)c2)cnc1=O`, the 2aPTT in series [1] was found to be 47 µM. Further, the fraction unbound at 4 h, 10 µM in series [3] turned out to be 0.017. Further, the Papp at 5 h, 5 µM in series [4] was determined as 0.7 ×10⁻⁶ cm/s. The values for the IC50 in series [5] and in series [6] were 26000 nM and 36 nM, respectively.

With `Nc1noc2c(N3CC[C@@H](NC(=O)c4ccc(-n5cnnc5)cc4Cl)C3)ccc(F)c12`, the figures for the IC50 in series [5] and in series [6] were greater than 100000 nM and 172 nM, respectively.

As to `Nc1noc2c(N3CCC(NC(=O)c4ccc(-n5cnnc5)cc4Cl)C3)cc(Cl)cc12` (racemic), the results for the IC50 in series [5] and in series [6] were greater than 100000 nM and 18 nM, respectively.

Take `Cc1cc2c(N)noc2c(N2CC[C@@H](NC(=O)c3ccc(-n4cnnc4)cc3Cl)C2)n1`: the IC50 in series [5] was greater than 100000 nM; in series [6], 41 nM.

Take `Cc1cc(N2CCC(NC(=O)c3ccc(-n4cnnc4)cc3Cl)C2)c2onc(N)c2c1` (racemic): the IC50 in series [5] is greater than 100000 nM; in series [6], 50 nM.

Regarding `Nc1noc2c(N3CC[C@@H](NC(=O)c4ccc(-n5cnnc5)cc4Cl)C3)cc(Cl)c(Cl)c12`, the IC50 in series [5] is 29000 nM; in series [6], 47 nM.

Take `Nc1noc2c(N3CCC(NC(=O)c4ccc(-n5cnnc5)cc4Cl)C3)nccc12` (racemic): the results for the IC50 in series [5] and in series [6] were greater than 100000 nM and 89 nM, respectively.

Take `Nc1noc2c(N3CC[C@@H](NC(=O)c4ccc(-c5cncnc5)cc4Cl)C3)ncc(Cl)c12`: in series [1], the 2aPTT was 101 µM. The compound also gave a Cmax in series [2] of 380 ng/mL. In series [3], this compound came in with a fraction unbound at 4 h, 10 µM of 0.002. The apparent permeability (Papp) at 5 h, 5 µM in series [4] was 9.4 ×10⁻⁶ cm/s. The IC50 in series [5] was greater than 100000 nM; in series [6], 26 nM.

For `Cc1cc(N2CC[C@@H](NC(=O)c3ccc(-n4cnnc4)cc3Cl)C2)c2onc(N)c2c1Cl`, the figures for the IC50 in series [5] and in series [6] were 22000 nM and 62 nM, respectively.

As for `O=C(NC[C@H]1CN(c2ccc(N3CCOCC3=O)cc2)C(=O)O1)c1ccc(Cl)s1`, the result in series [7] and in series [8] was Active.

`Nc1noc2c(N3CC[C@@H](NC(=O)c4ccc(-c5ncccn5)cc4Cl)C3)ncc(Cl)c12`: the IC50 in series [5] is greater than 100000 nM; in series [6], greater than 3000 nM.

Take `Nc1noc2c(N3CC[C@@H](NC(=O)c4ccc(-n5cnnc5)cc4Cl)C3)ccc(Cl)c12`: the IC50 in series [5] was greater than 30000 nM; in series [6] it was 32 nM.

Take `Cn1cc(-c2ccc(C(=O)N[C@@H]3CCN(c4ncc(Cl)c5c(N)noc45)C3)c(Cl)c2)ccc1=O`: the 2aPTT in series [1] was determined as 85 µM. In addition, the concentration in series [2] peaked (Cmax) at 510 ng/mL. The fraction unbound at 4 h, 10 µM in series [3] turned out to be 0.004. Besides, the Papp at 5 h, 5 µM in series [4] was found to be 6.5 ×10⁻⁶ cm/s. Also, the figures for the IC50 in series [5] and in series [6] were 20000 nM and 18 nM, respectively.
